Experimental data as given in CN101659655A, “一类吡唑酰胺衍生物及其应用” (Nankai University, priority 2009, dated 2010).

Tests used:
Assay type in all cases: in vivo
[1] = system: oriental armyworm, Mythimna separata Walker (东方粘虫); experiment: bioactivity evaluation against oriental armyworm, leaf dip; conditions: in Zea mays, foliar, 72 h, read-out: mortality grade
[2] = system: diamondback moth, Plutella xylostella (L.) (小菜蛾); experiment: bioactivity evaluation against diamondback moth, leaf dip; conditions: in Brassica oleracea, foliar, 72 h, read-out: mortality grade
[3] = system: beet armyworm, Laphygma exigua Hubner (甜菜夜蛾); experiment: bioactivity evaluation against beet armyworm, leaf dip; conditions: Spodoptera exigua, in Brassica oleracea, foliar, 72 h, read-out: mortality grade

Measured: mortality at 500 ppm

Cc1cc(Cl)cc(C(=O)NC2CC2)c1NC(=O)c1cc(OCC(F)(F)F)nn1-c1ncccc1Cl [compound 18]
90 to 100%: [1] | [2] | [3]
